We go through 2 molecules from publication PMC8691691 (ACS Chemical Neuroscience, 2021).

For data set [1] the following is noted: cited from earlier work.
Another data set concerns the target T1, GlyT2 A210C mutant (Rattus norvegicus, UniProt P58295, A210C).
T1 construct: expressed in transfected cells; host or cells: COS7
T1 sequence (P58295 1-799 A210C): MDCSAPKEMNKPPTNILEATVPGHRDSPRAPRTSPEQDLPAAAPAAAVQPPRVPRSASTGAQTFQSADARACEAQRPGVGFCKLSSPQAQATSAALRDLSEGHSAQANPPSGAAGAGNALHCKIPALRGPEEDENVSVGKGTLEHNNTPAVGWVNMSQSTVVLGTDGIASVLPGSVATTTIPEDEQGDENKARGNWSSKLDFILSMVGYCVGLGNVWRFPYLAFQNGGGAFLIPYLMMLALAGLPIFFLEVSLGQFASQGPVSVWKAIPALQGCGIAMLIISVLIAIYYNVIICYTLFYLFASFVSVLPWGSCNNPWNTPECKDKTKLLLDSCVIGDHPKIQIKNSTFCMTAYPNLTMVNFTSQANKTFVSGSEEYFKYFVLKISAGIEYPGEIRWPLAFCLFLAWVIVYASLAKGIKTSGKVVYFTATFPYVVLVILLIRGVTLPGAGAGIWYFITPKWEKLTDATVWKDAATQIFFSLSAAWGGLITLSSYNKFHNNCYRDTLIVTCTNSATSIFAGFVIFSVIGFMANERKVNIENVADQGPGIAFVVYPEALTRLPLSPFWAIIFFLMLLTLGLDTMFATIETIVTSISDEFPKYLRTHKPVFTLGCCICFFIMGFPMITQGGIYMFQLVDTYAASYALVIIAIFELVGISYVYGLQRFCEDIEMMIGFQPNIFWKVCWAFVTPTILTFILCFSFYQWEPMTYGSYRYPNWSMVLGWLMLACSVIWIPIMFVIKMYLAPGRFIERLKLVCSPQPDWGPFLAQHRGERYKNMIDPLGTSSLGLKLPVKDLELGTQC
Description: [3H]glycine transport by GlyT2 mutant in COS7 cells. It is filed as cell-based.

In a further data set the target is T2, GlyT2 T580C mutant (Rattus norvegicus, UniProt P58295, T580C).
T2 construct: expressed in transfected cells; host or cells: COS7
T2 sequence (P58295 1-799 T580C): T1 sequence (P58295 1-799 A210C) with C210A, T580C
The description is as above. Format: cell-based.

For another data set, the target named is T3, GlyT2 L576I mutant (Rattus norvegicus, UniProt P58295, L576I).
T3 construct: expressed in transfected cells; host or cells: COS7
T3 sequence (P58295 1-799 L576I): T1 sequence (P58295 1-799 A210C) with C210A, L576I
The description is as above. The settings on record: for IC50: read-out: IC50 (Table S1). Format: cell-based.

Positions count from the first letter of the chain named. Like-named read-outs stand apart in the source and are kept apart here.

Consider `COc1cc(C(=O)NCC2(N(C)C)CCCC2)cc(OC)c1OCc1ccccc1` [ORG25543, N-[[1-(dimethylamino)cyclopentyl]methyl]-3,5-dimethoxy-4-(phenylmethoxy)benzamide], for which the “blood–brain barrier crossing (in words)” value in data set [1] was “can cross the blood–brain barrier”. Moreover, the IC50 on GlyT2 A210C mutant was 20 ± 12 nM; on GlyT2 T580C mutant, 96 ± 10 nM; on GlyT2 L576I mutant, 111 ± 15 nM.

Take `N[C@@H](COC(c1cccc(F)c1)c1ccccc1OCc1ccccc1)C(=O)O` (stereo partly drawn) [ALX1393]: the “fraction of the drug that crosses the blood–brain barrier” value in data set [1] is given as 5%. For the same molecule, the concentration for half-maximal inhibition (IC50) on GlyT2 A210C mutant (read-out: IC50 (Table S1)) is 23 ± 3 nM; on GlyT2 T580C mutant (read-out: IC50 (Table S1)), 84 ± 9 nM; at GlyT2 L576I mutant, 101 ± 22 nM. In addition, the “effect of mutation on inhibition of glycine transport” value at GlyT2 L576I mutant (L576I, 1 μM inhibitor, 25 μM glycine) is reported as “prevented the inhibition by ALX1393 to a greater extent than that of ORG25543”.
